In patent US20010055569A1, “Nasal drug delivery composition” (West Pharmaceutical Services Drug Delivery & Clinical …, priority 1998, published 2001):
≈ marks a conversion by molar mass, not a printed value. Where two headings read alike, the source gives them in different places. Each block holds one compound with its values, some of them ahead of it.

Assay: Solubility of drugs in vegetable oils (castor oil, soybean oil)
Conditions: for solubility: oil or lipid, thermodynamic from solid
Protocol: The solubility of flurbiprofen in different vegetable oils was measured by the addition of increasing quantities of the drug to an oil system and determination of the maximum amount that will dissolve by observation of the resultant solution and the onset of a cloudy nature or precipitation.

- Solubility in soybean oil (room temperature, soybean oil): <10 mg/g
Compound: CN1CCc2cccc3c2[C@H]1Cc1ccc(O)c(O)c1-3 [Apomorphine]

- solubility (castor oil BP): 150 mg/mL (≈ 614 mM)
- solubility (soybean oil BP): < 50 mg/mL
Compound: CC(C(=O)O)c1ccc(-c2ccccc2)c(F)c1 (centres unmarked) [flurbiprofen]

- Solubility in castor oil: >15 < 20 mg/g
- Solubility in soybean oil: <5 mg/g
Compound: COc1ccc2c(c1)c(CC(=O)O)c(C)n2C(=O)c1ccc(Cl)cc1 [Indomethacin]
